Data: US7135466B2 (Kirin Beer Kabushiki Kaisha, priority 1999, dated 2006)
Where two headings read alike, the source gives them in different places.

How the values were obtained:
c-kit = biological target: T1, c-kit (Homo sapiens, UniProt P10721); test: Inhibitory activity against c-kit autophosphorylation (MO7e cells, h-SCF); type: cell-based; conditions: for IC50: MO7e cells, read-out: c-kit IC50; for inhibition at 1 µM: Mo7e, at 1000 nM
T1 construct: MO7e (human megakaryocytic leukemia cell line) which had been arrested for 20 hr; endogenous in cells; host or cells: MO7e human megakaryocytic leukemia cell line
T1 sequence (P10721 26-976): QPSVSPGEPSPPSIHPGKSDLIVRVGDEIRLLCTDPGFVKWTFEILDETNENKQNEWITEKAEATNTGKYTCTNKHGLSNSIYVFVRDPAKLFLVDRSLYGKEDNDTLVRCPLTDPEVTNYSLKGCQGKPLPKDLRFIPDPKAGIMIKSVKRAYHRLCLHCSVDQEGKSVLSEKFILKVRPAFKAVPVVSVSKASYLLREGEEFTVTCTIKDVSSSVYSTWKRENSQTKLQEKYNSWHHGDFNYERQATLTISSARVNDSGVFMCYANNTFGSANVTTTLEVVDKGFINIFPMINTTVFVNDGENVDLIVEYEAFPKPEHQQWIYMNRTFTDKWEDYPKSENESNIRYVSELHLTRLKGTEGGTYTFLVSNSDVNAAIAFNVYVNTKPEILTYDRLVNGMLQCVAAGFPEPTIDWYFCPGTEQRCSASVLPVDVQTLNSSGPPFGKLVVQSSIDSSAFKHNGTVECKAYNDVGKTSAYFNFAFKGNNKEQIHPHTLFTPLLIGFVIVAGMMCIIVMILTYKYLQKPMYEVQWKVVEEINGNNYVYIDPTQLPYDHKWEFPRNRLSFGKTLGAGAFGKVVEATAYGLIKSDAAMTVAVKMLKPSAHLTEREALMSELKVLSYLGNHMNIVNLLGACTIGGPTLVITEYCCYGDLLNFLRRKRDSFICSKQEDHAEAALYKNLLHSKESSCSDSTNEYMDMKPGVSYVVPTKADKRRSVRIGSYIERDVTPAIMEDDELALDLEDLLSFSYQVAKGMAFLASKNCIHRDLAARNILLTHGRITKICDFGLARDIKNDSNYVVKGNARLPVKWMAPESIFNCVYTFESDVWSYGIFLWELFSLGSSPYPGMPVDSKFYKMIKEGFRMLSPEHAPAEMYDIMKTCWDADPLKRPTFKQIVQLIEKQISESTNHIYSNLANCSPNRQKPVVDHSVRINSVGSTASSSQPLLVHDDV
In short: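 Growth-arrested (20 hr) MO7e; cpd in DMSO, 1 hr; h-SCF 50 ng/ml, 5 min; lyse. ELISA: anti-pTyr (PY-20) capture, anti-c-kit 1° Ab, HRP anti-rabbit 2° Ab, A450.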

PDGF-Ra = biological target: T2, PDGF-Ra (Homo sapiens, UniProt P16234); test: Inhibitory activity against PDGF-Ra phosphorylation by PDGF-AA stimulation using G292; type: cell-based; conditions: for IC50: > means inhibition at indicated concentration not more than 50%, < and << not less than 50%, read-out: PDGF (E) IC50; for inhibition at 0.1 µM: G292, figure within parentheses in >100( ), at 100 nM, read-out: PDGF (E) inhibition (%) at 100 nM
T2 construct: host or cells: G-292 human osteosarcoma cells
T2 sequence (P16234 24-1089): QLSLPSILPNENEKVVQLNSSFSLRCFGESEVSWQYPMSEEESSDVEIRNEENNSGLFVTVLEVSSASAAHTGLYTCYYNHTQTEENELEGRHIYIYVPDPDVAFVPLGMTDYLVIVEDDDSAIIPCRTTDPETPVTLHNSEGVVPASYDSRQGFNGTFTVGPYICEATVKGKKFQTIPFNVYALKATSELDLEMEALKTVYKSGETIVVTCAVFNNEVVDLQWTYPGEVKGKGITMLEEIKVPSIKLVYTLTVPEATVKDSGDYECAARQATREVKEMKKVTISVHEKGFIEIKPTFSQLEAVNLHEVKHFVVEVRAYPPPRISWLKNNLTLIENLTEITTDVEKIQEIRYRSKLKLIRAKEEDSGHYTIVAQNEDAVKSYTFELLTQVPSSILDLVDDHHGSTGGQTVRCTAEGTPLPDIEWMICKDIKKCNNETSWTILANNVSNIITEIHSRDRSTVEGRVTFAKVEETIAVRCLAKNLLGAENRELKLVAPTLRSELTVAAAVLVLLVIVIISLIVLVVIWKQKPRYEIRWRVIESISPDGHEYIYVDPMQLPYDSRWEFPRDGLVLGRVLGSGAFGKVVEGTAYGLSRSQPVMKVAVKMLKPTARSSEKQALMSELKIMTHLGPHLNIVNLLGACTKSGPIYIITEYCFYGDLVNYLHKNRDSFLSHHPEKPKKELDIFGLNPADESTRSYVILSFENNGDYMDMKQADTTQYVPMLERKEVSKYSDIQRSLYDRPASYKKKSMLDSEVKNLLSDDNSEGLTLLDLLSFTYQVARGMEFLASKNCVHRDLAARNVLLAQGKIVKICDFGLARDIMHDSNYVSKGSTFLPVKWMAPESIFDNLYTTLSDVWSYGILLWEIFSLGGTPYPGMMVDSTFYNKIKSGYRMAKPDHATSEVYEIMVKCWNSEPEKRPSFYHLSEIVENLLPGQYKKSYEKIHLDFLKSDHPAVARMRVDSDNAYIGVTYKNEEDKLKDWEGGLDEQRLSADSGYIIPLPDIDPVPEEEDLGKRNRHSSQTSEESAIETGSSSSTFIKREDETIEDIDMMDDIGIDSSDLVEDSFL
In short: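 Phosphorylated PDGF-Ra was measured colorimetrically (450 nm) after tyrosine-phosphorylated proteins from G-292 lysates were bound to PY-20-coated wells and detected with anti-PDGF-Ra antibody. Compound preincubation lasted 1 hr, followed by 50 ng/ml PDGF-AA for 5 min.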

[1] = figure within parentheses in −( ) or >1000( )

| Structure (SMILES) | IC50 (PDGF-Ra) | IC50 (c-kit; h-SCF 50 ng/ml) | IC50 (PDGF-Ra; Pharmacological Test Example 1) | also measured |
| --- | --- | --- | --- | --- |
| COc1cc2nccc(Oc3ccc(NC(=S)NC(=O)N(C(C)C)C(C)C)cc3Cl)c2cc1OC [Example 1050, N-{3-Chloro-4-[(6,7-dimethoxy-4-quinolyl)oxy]phenyl}-{[(diisopropylamino)carbonyl]amino}methanethioamide] | 23 nM | – | – | IC50 (c-kit; h-SCF stimulation): 579 nM |
| COc1ccc(COC(=O)Nc2cc(C)c(Oc3ccnc4cc(OC)c(OC)cc34)cc2C)cc1OC [Example 64, 3,4-Dimethoxybenzyl N-{4-[(6,7-dimethoxy-4-quinolyl)oxy]-2,5-dimethylphenyl}carbamate] | – | 429 nM | 90 nM | – |
| COc1cc2ncnc(Oc3ccc(NC(=O)OC4CCN(C)CC4)cc3)c2cc1OC [Example 469, 1-Methyl-4-piperidyl N-{4-[(6,7-dimethoxy-4-quinazolinyl)oxy]phenyl}carbamate] | > 100 nM | – | – | inhibition at 1 µM (c-kit; [1]): 28%; inhibition at 0.1 µM (PDGF-Ra): 0% |
| COc1cc2nccc(Oc3ccc(NC(=O)OCc4cccc(Cl)c4)c(C)c3C)c2cc1OC [Example 236, 3-Chlorobenzyl N-{4-[(6,7-dimethoxy-4-quinolyl)oxy]-2,3-dimethylphenyl}carbamate] | – | 47 nM | 4 nM | – |
| CCOc1ccccc1C(C)OC(=O)Nc1ccc(Oc2ccnc3cc(OC)c(OC)cc23)c(C)c1C (stereo not drawn) [Example 128, 1-(2-Ethoxyphenyl)ethyl N-{4-[(6,7-dimethoxy-4-quinolyl)oxy]-2,3-dimethylphenyl}carbamate] | – | 375 nM | 26 nM | – |
| COc1cc2ncnc(Oc3ccc(NC(=S)NC(=O)Cc4ccccc4Cl)cc3)c2cc1OC [Example 724, N-[2-(2-Chlorophenyl)acetyl]-N′-{4-[(6,7-dimethoxy-4-quinazolinyl)oxy]phenyl}thiourea] | < 10 nM | – | – | IC50 (c-kit; 50 ng/ml h-SCF): 116 nM |
| COc1cc2nccc(Oc3ccc(NC(=S)NC(=O)Cc4ccc5ccccc5c4)cc3Cl)c2cc1OC [Example 710, N-{3-Chloro-4-[(6,7-dimethoxy-4-quinolyl)oxy]phenyl}-N′-[2-(2-naphthyl)acetyl]thiourea] | > 100 nM | – | – | inhibition at 1 µM (c-kit; [1]): 30%; inhibition at 0.1 µM (PDGF-Ra): 33% |
| COc1cc2nccc(Oc3ccc(NC(=S)NC(=O)N4CCOCC4)cc3Cl)c2cc1OC [Example 1052, N-{3-Chloro-4-[(6,7-dimethoxy-4-quinolyl)oxy]phenyl}-N′-morpholinocarbonylthiourea] | 21 nM | – | – | IC50 (c-kit; h-SCF stimulation): 408 nM |
| COc1cc2ncnc(Oc3ccc(NC(=O)OC(C)c4cccc(Cl)c4)c(Cl)c3)c2cc1OC (stereo not drawn) [Example 7] | – | 616 nM | 12 nM | – |
| COc1cc2ncnc(Oc3ccc(NC(=S)NN4CCCCC4)cc3)c2cc1OC [Example 524, N-{4-[(6,7-Dimethoxy-4-quinazolinyl)oxy]phenyl}-N′-(1-piperidinyl)thiourea] | > 100 nM | – | – | inhibition at 1 µM (c-kit; [1]): 21%; inhibition at 0.1 µM (PDGF-Ra): 21% |
| COc1cc2nccc(Oc3ccc(NC(=S)NC(=O)c4ccc(I)cc4)c(F)c3)c2cc1OC [Example 967, N-{4-[(6,7-Dimethoxy-4-quinolyl)oxy]-2-fluorophenyl}-N′-(4-iodobenzoyl)thiourea] | 20 nM | – | – | inhibition at 1 µM (c-kit; figure in parentheses in −( )): 15% |
| COc1cc2nccc(Oc3cc(C)c(NC(=S)NCCN(C)C)cc3C)c2cc1OC [Example 538, N-{4-[(6,7-Dimethoxy-4-quinolyl)oxy]-2,5-dimethylphenyl}-N′-(2-dimethylaminoethyl)thiourea] | > 100 nM | – | – | IC50 (c-kit; 50 ng/ml h-SCF): 768 nM; inhibition at 0.1 µM (PDGF-Ra): 22% |
| COc1cc2nccc(Oc3ccc(NC(=O)OC4CCCCCC4)cc3)c2cc1OC [Example 286, Cycloheptyl N-{4-[(6,7-dimethoxy-4-quinolyl)oxy]phenyl}carbamate] | – | 54 nM | < 10 nM | – |
| COc1cc2nccc(Oc3ccc(NC(=O)OC4CCCCC4)cc3)c2cc1OC [Example 230, Cyclohexyl N-{4-[(6,7-dimethoxy-4-quinolyl)oxy]phenyl}carbamate] | – | 111 nM | 8 nM | – |
| COc1cc2nccc(Oc3ccc(NC(=O)OCCCCCCN(C)C)cc3)c2cc1OC [Example 309, 6-(Dimethylamino)hexyl N-{4-[(6,7-dimethoxy-4-quinolyl)oxy]phenyl}carbamate] | – | 285 nM | 10 nM | – |
| CCCCC(CCCC)OC(=O)Nc1cc(C)c(Oc2ccnc3cc(OC)c(OC)cc23)cc1C [Example 369, 1-Butylpentyl N-{4-[(6,7-dimethoxy-4-quinolyl)oxy]-2,5-dimethylphenyl}carbamate] | – | – | > 100 nM | inhibition at 1 µM (c-kit; figure in parentheses in −( )): 36% |
| COc1cc2nccc(Oc3ccc(NCCOc4c(F)cccc4F)cc3C)c2cc1OC [Example 883, N-[2-(2,6-Difluorophenoxy)ethyl]-N-{4-[(6,7-dimethoxy-4-quinolyl)oxy]-3-methylphenyl}amine] | > 30 nM | – | – | IC50 (c-kit; h-SCF stimulation): 521 nM; PDGF (E) inhibition (%), figure in parentheses in >30( ) (PDGF-Ra; figure in parentheses in >30( ), concentration not defined in key (presumably 30 nM)): >30(30) % |
| COc1cc2nccc(Oc3ccc(NC(=S)NC(=O)c4ccccc4I)cc3F)c2cc1OC [Example 915, N-{4-[(6,7-Dimethoxy-4-quinolyl)oxy]-3-fluorophenyl}-N′-(2-iodobenzoyl)thiourea] | 9 nM | – | – | IC50 (c-kit; h-SCF stimulation): 240 nM |
| CCN(CCNC(=O)Nc1ccc(Oc2ccnc3cc(OC)c(OC)cc23)cc1OC)c1cccc(C)c1 [Example 670, N-{4-[(6,7-Dimethoxy-4-quinolyl)oxy]-2-methoxyphenyl}-N′-[2-(ethyl-3-methylanilino)ethyl]urea] | 15 nM | – | – | IC50 (c-kit; 50 ng/ml h-SCF): 82 nM |
| COc1cc2ncnc(Oc3ccc(NC(=O)NCCN(C(C)C)C(C)C)cc3)c2cc1OC [Example 656, N-[2-(Diisopropylamino)ethyl]-N′-{4-[(6,7-dimethoxy-4-quinazolinyl)oxy]phenyl}urea] | 19 nM | – | – | inhibition at 1 µM (c-kit; [1]): 32% |
| COc1cc2ncnc(Oc3ccc(NC(=O)OC(C)c4ccc(C)cc4)c(Cl)c3)c2cc1OC (stereo not drawn) [Example 136, 1-(4-Methylphenyl)ethyl N-{2-chloro-4-[(6,7-dimethoxy-4-quinazolinyl)oxy]phenyl}carbamate] | – | – | 43 nM | inhibition at 1 µM (c-kit; figure in parentheses in −( )): 7% |
| COc1cc2nccc(Oc3ccc(NC(=O)NC4CCN(Cc5ccccc5Cl)C4)cc3)c2cc1OC (stereo not drawn) [Example 579, N-[1-(2-Chlorobenzyl)tetrahydro-1H-3-pyrrolyl]-N′-{4-[(6,7-dimethoxy-4-quinolyl)oxy]phenyl}urea] | 22 nM | – | – | IC50 (c-kit; 50 ng/ml h-SCF): 145 nM |
| COc1cc2ncnc(Oc3ccc(NC(=O)OCCCOc4ccc(F)cc4)cc3)c2cc1OC [Example 155, 3-(4-Fluorophenoxy)propyl N-{4-[(6,7-dimethoxy-4-quinazolinyl)oxy]phenyl}carbamate] | – | 41 nM | 14 nM | – |
| COc1cc2nccc(Oc3ccc(NC(=O)Oc4cccc(C#N)c4)c(C)c3C)c2cc1OC [Example 459, 3-Cyanophenyl N-{4-[(6,7-dimethoxy-4-quinolyl)oxy]-2,3-dimethylphenyl}carbamate] | 47 nM | – | – | IC50 (c-kit; 50 ng/ml h-SCF): < 30 nM |
| COc1cc2nccc(Oc3cc(C)c(NC(=O)OC(C)c4cccc(Br)c4)cc3C)c2cc1OC (stereo not drawn) [Example 119, 1-(3-Bromophenyl)ethyl N-{4-[(6,7-dimethoxy-4-quinolyl)oxy]-2,5-dimethylphenyl}carbamate] | – | – | > 100 nM | inhibition at 1 µM (c-kit; figure in parentheses in −( )): 31% |
| COc1cc2ncnc(Oc3ccc(NC(=O)OC4CCCC4)c(Cl)c3)c2cc1OC [Example 367, Cyclopentyl N-{2-chloro-4-[(6,7-dimethoxy-4-quinazolinyl)oxy]phenyl}carbamate] | – | 207 nM | 55 nM | – |
